Eleven molecules from patent US20170291905A1, “ARGININE […] INHIBITORS AND USES THEREOF” (Epizyme, Inc., priority 2014, published 2017) can be followed below.

Each structure is given as a SMILES string.

T1 sequence (Q99873 whole entry): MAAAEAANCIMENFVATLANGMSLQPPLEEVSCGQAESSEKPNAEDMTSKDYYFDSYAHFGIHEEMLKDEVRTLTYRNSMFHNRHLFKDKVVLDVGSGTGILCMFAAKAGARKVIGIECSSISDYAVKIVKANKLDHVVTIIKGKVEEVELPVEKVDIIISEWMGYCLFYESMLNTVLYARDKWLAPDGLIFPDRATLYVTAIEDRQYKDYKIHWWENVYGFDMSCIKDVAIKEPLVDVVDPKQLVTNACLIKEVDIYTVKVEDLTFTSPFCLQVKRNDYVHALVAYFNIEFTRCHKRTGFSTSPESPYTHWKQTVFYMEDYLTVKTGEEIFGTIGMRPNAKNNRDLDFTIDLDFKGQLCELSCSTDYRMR

The experiment concerns the target T1, PRMT1 (Homo sapiens, UniProt Q99873).
T1 construct: host or cells: RKO cells
Nature of the experiment: RKO methylation assay, In Cell Western (ICW) for mono-methyl arginine and DNA content. It counts as cell-based. As to conditions: RKO cells, 72 hours, mono-methyl arginine signal normalised to DRAQ5, percent activation. An excerpt: RKO Methylation Assay RKO adherent cells were purchased from ATCC (American Type Culture Collection), Manassas, Va., USA. DMEM/Glutamax medium, penicillin-streptomycin, heat inactivated fetal bovine serum, 0.05% trypsin and D-PBS were purchased from Life Technologies, Grand Island, N.Y., USA. Odyssey blocking buffer, 800CW goat anti-rabbit IgG (H+L) antibody, and Licor Odyssey infrared scanner were purchased from Licor Biosciences, Lincoln, Nebr., USA. Mono-methyl arginine antibody was purchased from Cell Signaling Technology, Danvers, Mass., USA. Methanol was purchased from VWR, Franklin, Mass., USA. 10% Tween 20 was purchased from KPL, Inc., Gaithersburg, Md., USA. DRAQ5 was purchased from Biostatus Limited, Leicestershire, UK. RKO adherent cells were maintained in growth medium (DMEM/Glutamax medium supplemented with 10% v/v heat inactivated fetal bovine serum and 100 units/mL penicillin-streptomycin) and cultured at 37° C. under 5% CO2. Cell Treatment, in Cell Western (ICW) for Detection of Mono-Methyl Arginine and DNA Content. RKO cells were seeded in assay medium at a concentration of 20,000 cells per mL to a poly-D-lysine coated 384 well culture plate (BD Biosciences 356697) with 50 μL per well. Compound (100 nL) from a 96-well source plate was added directly to 384 well cell plate. Plates were incubated at 37° C., 5% CO2 for 72 hours. After three days of incubation, plates were brought to room temperature outside of the incubator for ten minutes and blotted on paper towels to remove cell media. 50 μL of ice cold 100% methanol was added directly to each well and incubated for 30 min at room temperature. After 30 min, plates were transferred to a Biotek EL406 plate washer and washed 2 times with 100 μL per well of wash buffer (1×PBS). Next 60 μL per well of Odyssey blocking buffer (Odyssey Buffer with 0.1% Tween 20 (v/v)) were added to each plate and incubated 1 hour at room temperature. Blocking buffer was removed and 20 μL per well of primary antibody was added (mono-methyl arginine diluted 1:200 in Odyssey buffer with 0.1% Tween 20 (v/v)) and plates were incubated overnight (16 hours) at 4° C. Plates were washed 5 times with 100 μL per well of wash buffer. Next 20 μL per well of secondary antibody was added (1:200 800CW goat anti-rabbit IgG (H+L) antibody, 1:1000 DRAQ5 (Biostatus limited) in Odyssey buffer with 0.1% Tween 20 (v/v)) and incubated for 1 hour at room temperature. The plates were washed 5 times with 100 μL per well wash buffer then 2 times with 100 μL per well of water. Plates were allowed to dry at room temperature then imaged on the Licor Odyssey machine which measures integrated intensity at 700 nm and 800 nm wavelengths. Both 700 and 800 channels were scanned. […] Each plate included fourteen control wells of DMSO only treatment (minimum activation) as well as fourteen control wells for maximum activation treated with 20 μM of a reference compound. The average of the ratio values for each control type was calculated and used to determine the percent activation for each test well in the plate. Reference compound was serially diluted three-fold in DMSO for a total of nine test concentrations, beginning at 20 μM. Percent activation was determined and EC30 curves were generated using triplicate wells per concentration of compound.
For `CCC1(CC)C[C@]2(CC[C@@H](c3n[nH]cc3CN(C)CCNC)CC2)NC1=O` [compound 48, (5r,8r)-3,3-diethyl-8-(4-((methyl(2-(methylamino)ethyl)amino)methyl)-1H-pyrazol-3-yl)-1-azaspiro[4.5]decan-2-one], the “PRMT1 RGG ICW EC30” value was above 5.0 µM. `CCC1(CC)C[C@]2(CC[C@H](c3n[nH]cc3CN(C)CCNC)CC2)NC1=O` [compound 47, (5s,8s)-3,3-diethyl-8-(4-((methyl(2-(methylamino)ethyl)amino)methyl)-1H-pyrazol-3-yl)-1-azaspiro[4.5]decan-2-one]: the “PRMT1 RGG ICW EC30” value amounted to 0.3671 µM.

Take `CNCCN(C)Cc1c[nH]nc1C1CCC(COCCC2CCOCC2)(COCCC2CCOCC2)CC1` [compound 40]: the “PRMT1 RGG ICW EC30” value worked out at 0.4585 µM. For the molecule `CNCCN(C)Cc1c[nH]nc1C1CCC(COCC2CC2)(COCC2CC2)CC1` [compound 41, N1-((3-(4,4-bis((cyclopropylmethoxy)methyl)cyclohexyl)-1H-pyrazol-4-yl)methyl)-N1,N2-dimethylethane-1,2-diamine], the “PRMT1 RGG ICW EC30” value worked out at 0.06748 µM. Take `CNCCN(C)Cc1c[nH]nc1C1CCC(CO)(CO)CC1` [compound 44, (4-(4-((methyl(2-(methylamino)ethyl)amino)methyl)-1H-pyrazol-3-yl)cyclohexane-1,1-diyl)dimethanol]: the “PRMT1 RGG ICW EC30” value is above 5.0 µM.

In the case of `CNCCN(C)Cc1c[nH]nc1C1=CCC2(CC1)CC(C)(C)CO2` (centres unmarked) [compound 46, N1-((3-(3,3-dimethyl-1-oxaspiro[4.5]dec-7-en-8-yl)-1H-pyrazol-4-yl)methyl)-N1,N2-dimethylethane-1,2-diamine], the “PRMT1 RGG ICW EC30” value is 0.1851 µM. For `CN(C)CCN(C)Cc1c[nH]nc1[C@H]1CC[C@@]2(CC1)CC(C)(C)CO2` [compound 42, N1-((3-((5S,8S)-3,3-dimethyl-1-oxaspiro[4.5]decan-8-yl)-1H-pyrazol-4-yl)methyl)-N1,N2,N2-trimethylethane-1,2-diamine], the “PRMT1 RGG ICW EC30” value was 0.05141 µM.

For `CCOCCOCC1(COCCOCC)CCC(c2n[nH]cc2CN(C)CCNC)CC1` [compound 39, N1-((3-(4,4-bis((2-ethoxyethoxy)methyl)cyclohexyl)-1H-pyrazol-4-yl)methyl)-N1,N2-dimethylethane-1,2-diamine], the “PRMT1 RGG ICW EC30” value was 1.388 µM. In the case of `CC[C@H]1CC[C@@H](c2n[nH]cc2CN(C)CCNC)CC1` [compound 1], the “PRMT1 RGG ICW EC30” value was 0.08301 µM. Regarding `CNCCN(C)Cc1ccnn1[C@H]1CC[C@@]2(CC1)CC(C)(C)CO2` [compound 49, N1-((1-((5s,8s)-3,3-dimethyl-1-oxaspiro[4.5]decan-8-yl)-1H-pyrazol-5-yl)methyl)-N1,N2-dimethylethane-1,2-diamine], the “PRMT1 RGG ICW EC30” value is 0.1113 µM. Under `CN(C)CCN(C)Cc1c[nH]nc1[C@H]1CC[C@]2(CC1)CC(C)(C)CO2` [compound 43, N1-((3-((5r,8r)-3,3-dimethyl-1-oxaspiro[4.5]decan-8-yl)-1H-pyrazol-4-yl)methyl)-N1,N2,N2-trimethylethane-1,2-diamine] stands 0.6228 µM.
